Measurements published in PMC8533149 (Biomolecules, 2021).

Tested on: HIV-1 LTR-III G-quadruplex (FAM/TAMRA-labeled LTR-III)
Assay: FRET melting assay, LTR-III G4
Format: binding
Settings: Table S1 primary screening, ligand:ODN 50:1, singlicate
Description: To evaluate stabilizing properties of the ligands in a complex with oligodeoxyribonucleotides (ODNs) melting with fluorescence registration was used. ODN (0.5 μM) (Table 1), labeled with 6-carboxyfluorescein (FAM) and 6-carboxytetramethylrhodamine (TAMRA) at the 5′- and 3′-end, respectively, were folded in lithium cacodylate buffer (10 mM, pH 7.4) with 100 mM KCl by heating at 95 °C for 5 min and gradually cooling to r.t. GFP chromophore analogs (5 mM solution in DMSO) were diluted with the same buffer to the final concentration of 25 μM and mixed with an equal volume of 0.5 μM ODN solution resulting in a molar ratio of 50:1 (total volume was 50 μL). For the titration experiments molar ratios of 20:1 and 2:1 were used. Samples were analyzed using DTprime qPCR system (DNA-Technology LLC, Moscow, Russia). Fluorescence was registered by detection of FAM emission at 520 nm upon excitation at 495 nm in the temperature range of 30–95 °C with 1 °C/min gradient. Tm was determined using the instrument software and ΔTm was calculated relative to ODN Tm in a buffer solution containing 0.25% (v/v) DMSO. The primary and secondary screening were carried out in singlicate and triplicate, respectively.

Compound	LTR-III ΔTm [°C]
COc1ccc(C=C2N=C(C=C(O)c3ccc(C)cc3)N(C)C2=O)cc1 [SV 29]	-0.2
CCC1=NC(=Cc2ccc(O)cc2)C(=O)N1OC [M 316]	-0.3
COc1ccc(C=C2N=C(Nc3ccccc3)N(C)C2=O)cc1 [M 1944b]	-0.3
CCCC1=NC(=CN(C)C)C(=O)N1C [M 1945.1]	-0.6
CCN(CC)c1ccc(/C=C2\N=C3C(=O)NCCN3C2=O)cc1 [JL 19]	0.1
CC1=NC(=Cc2ccc(C(=O)O)cc2)C(=O)N1C [AI 89]	-0.5
CC(=O)Oc1ccc(C=C2N=C(C)NC2=O)cc1 [X 13]	-0.8
COc1ccc(-c2c(C(=O)OC(C)C)noc2C(=O)N2CCCCC2)cc1 [SA 375]	-0.4
CC1=NC(=Cc2cccc(C(F)(F)F)c2)C(=O)N1C [M 2375]	-0.2
COc1cc(O)ccc1/C=C1\N=C(C(C)=O)N(C)C1=O [N 1124]	1.3
CC(C)(C)[Si](Oc1ccc(/C=C/CO)cc1)(c1ccccc1)c1ccccc1 [M 1359]	0.1
CCOC(=O)c1noc(=O)c(O)c1-c1ccc(OC)cc1 [SA 562B]	-1
CCCC1=NC(=C(NB(F)F)c2ccccc2)C(=O)N1 [M 1878.1]	-1.5
CC1=NC(=Cc2c[nH]c3cccc(C)c23)C(=O)N1C [M 1974]	0
COc1ccc(C=CC2=NC(=Cc3ccnc4ccccc34)C(=O)N2C)cc1 [AL 122]	-0.6
COc1ccc(-c2c(C(=O)OC(C)C)noc2C(=O)N2CCCC2)cc1 [SA 309]	-0.5
Cc1cc(/C=C2\SC(=S)NC2=O)ccc1O [HMBR]	-0.6
CSC1=NC(=Cc2ccc(N(C)C)cc2)C(=O)N1 [AL 166.1]	0.1
CN1C(=O)C(=Cc2ccc(O)cc2)N=C1C=CC=Cc1ccccc1 [ccA 4]	0.8
CN(C)c1ccc(C(O)(c2ccc(N(C)C)cc2)c2ccccn2)cc1 [M 1122]	-0.6
CC1=NC(=Cc2ccc(O)cc2)C(=O)N1 [GA 01]	-0.4
CC1=NC(=Cc2cc3c4c(c2)CCCN4CCC3)C(=O)N1CCO [N 111]	1
COc1cccc(C=C2N=C(C)N(C)C2=O)c1 [SV 50.11]	-0.2

Compound	LTR-III ΔTm [°C]
CCn1nnc2c(Nc3ccccc3)cccc2c1=O [M 958A]	-0.7
CCN(CC)c1ccc(C=C2N=C3C=CC=CN3C2=O)cc1 [N 641]	-0.5
O=C1NC(/C=C/c2ccncc2)=NC/1=C\c1cc(F)c(O)c(F)c1 [N 863]	0
COc1ccc(C=C2N=C(C)N(C)C2=O)c(OC)c1 [M 2379]	0.1
COc1ccc(C=C2N=C3C(=O)NC(=O)CN3C2=O)cc1 [SA 130]	0.4
CCN(CC)c1ccc(C=C2N=C(C)N(CCCC(=O)O)C2=O)cc1 [M 820]	0.1
CN1C(=O)CN2C(=O)C(=Cc3ccc(O)cc3)N=C2C1=O [SA 108]	-0.1
CC1=NC(=Cc2ccc(Br)cc2)C(=O)N1Cc1ccccc1 [X 9]	-0.6
O=C1NC(=S)SC1=Cc1ccc(O)cc1 [HBR]	-0.2
CNC(=O)c1onc(C(=O)OC(C)C)c1-c1ccc(N(C)C)cc1 [SA 332.1]	-0.4
COc1ccc(C=C2N=C(C)N(Cc3ccccc3)C2=O)cc1 [ZS 128]	-0.3
COc1ccc(C=C2N=C(C)N(OC)C2=O)cc1 [M 312]	-0.2
CCC1=NC(=Cc2c[nH]c3cccc(C)c23)C(=O)N1C [M 1978]	-0.1
CC1=CC(C)(C)N(C)c2ccc(C=CC3=NC(=Cc4ccc5c(c4)C(C)=CC(C)(C)N5C)C(=O)N3CCCC(=O)O)cc21 [N 62]	0.6
Oc1cccc2nc3ccccc3nc12 [M 1255]	-0.6
CCCCN(CCCC)c1cccc(C=C2N=C(C)N(C)C2=O)c1 [M 1600]	-0.4
CC(C)OC(=O)c1noc(=O)c(O)c1-c1cccc2ccccc12 [SA 300B]	-0.9
CON1C(=O)C(=Cc2ccc(O)cc2)N=C1C [GA 16]	0.3
COc1ccc(-c2c(C(=O)OC(C)C)noc2C(=O)N2CCOCC2)cc1 [SA 341A]	-0.7
COc1c(O)ccc(/C=C2\N=C(C)N(C)C2=O)c1O [N 1042]	1.4
COc1ccc(C=C2N=C(C)N(C)C2=O)cc1 [M 1814]	-0.3
CC(C)CCC1=NC(=Cc2ccc(O)cc2)C(=O)N1 [M 803]	-0.1
CC1=NC(=Cc2cccc([N+](=O)[O-])c2)C(=O)N1C [M 1257]	-0.9

Compound	LTR-III ΔTm [°C]
C#CCN1C(=O)C(=Cc2ccc(O)cc2)N=C1C [X 12]	0.2
CSC1=NC(=Cc2ccc(O[Si](c3ccccc3)(c3ccccc3)C(C)(C)C)cc2)C(=O)N1C [SA 497]	-0.4
COc1ccccc1C=C1N=C(C)N(C)C1=O [M 1583.5]	0.1
O=C1NC(=S)SC1=Cc1ccc(O)c(Cl)c1 [SAI 125]	0.6
CC(C)OC(=O)c1noc(=O)c(O)c1-c1ccccc1F [SA 305A]	-0.7
CC(C)(C)[Si](Oc1ccc(C=C2NC(=S)NC2=O)cc1)(c1ccccc1)c1ccccc1 [VZ 2]	-0.2
COc1ccc(C=CC2=NC(=Cc3cc4cc(OC)ccc4cc3OC)C(=O)N2C)cc1 [AI 126]	1.6
CN1C(=O)C(=Cc2ccc(O)cc2)N=C1C=Cc1ccc(Br)cc1 [ccA 7]	0.8
CCC1=NC(=Cc2ccc(O[Si](c3ccccc3)(c3ccccc3)C(C)(C)C)cc2)C(=O)N1C [M 1557]	-0.1
CC1=NC(=Cc2ccccc2O)C(=O)N1C [M 1583.4]	0.2
CC1=CC(C)(C)N(C)c2ccc(C=C3N=C(C)N(C)C3=O)cc21 [M 1152]	0.6
CCN(CC)c1ccc(C=C2N=C(C=CC=Cc3ccc(OC)cc3)N(C)C2=O)c(B(F)F)c1 [M 1971c]	0.6
CC(C)OC(=O)c1noc(C(=O)NCc2ccccc2)c1-c1cccc(C(F)(F)F)c1 [SA 344B]	-0.7
COC(=O)c1noc(C(=O)N2CCCCC2)c1-c1ccc(OC)cc1 [SA 561C]	-1
COc1cc(O)ccc1C=C1N=C(C=Cc2ccccn2)N(C)C1=O [M 2766]	1.1
COc1ccc(/C=C2\N=C(C)N(C)C2=O)cc1OC [M 1583.6]	0
CCOC(=O)CN1C(=O)C(=Cc2ccc(O)cc2)N=C1C [M 1831.1]	-0.2
CN(C)C=CC1=NC(=Cc2ccc(O)cc2)C(=O)N1C [M 995a]	0.1
CN1C(=O)C(=Cc2ccc(O)cc2)N=C1C=Cc1cc(Cl)nc(Cl)c1 [N 886]	-0.2
CC1=NC(=Cc2c[nH]c3ccccc23)C(=O)N1C [GC 07]	-0.4
CN1C(=O)C(=Cc2ccc(O)cc2N(C)C)N=C1C=Cc1ccncc1 [MID 213]	0.9
CCN(CC)c1ccc(C=C2N=C(C)N(C)C2=O)cc1 [GC 01]	0.4
CSC1=NC(=Cc2ccc(O)cc2)C(=O)N1C [SA 581]	1

Compound	LTR-III ΔTm [°C]
CC1=NC(=Cc2cccc(O)c2)C(=O)N1C [M 1300]	0.2
CC1=NC(=Cc2cc(Br)c(O)c(Br)c2)C(=O)N1C [M 906]	-2.7
COc1ccc(/C=C2N=C(/C=C/N3CCOCC3)N(C)C\2=O)cc1 [M 2371c]	-0.1
CN(C)C=CC1=NC(=C(N)c2ccccc2)C(=O)N1C [ZS 182]	0
COc1cc(O)cc(OC)c1C=C1N=C(C=Cc2cc(Cl)nc(Cl)c2)N(C)C1=O [N 973]	2.3
O=C1NC(=S)SC1=Cc1cc(Cl)c(O)c(Cl)c1 [SAI 127]	-0.2
CCN(CC)c1ccc(C=C2N=C(C=Cc3cc(Br)c(O)c(Br)c3)N(C)C2=O)cc1 [M 2368d]	0.1
O=C1NC(=S)SC1=Cc1cc(Br)c(O)c(Br)c1 [SAI 112]	0.3
CN1C(=O)C(=Cc2ccc(O)cc2)N=C1C=Cc1ccc(O)c([N+](=O)[O-])c1 [ccA 11]	0.1
COc1ccc(C(=O)Oc2ccccc2)cc1 [M 939]	-1.1
CC(C)OC(=O)c1noc(=O)c(O)c1-c1ccc(C(C)C)cc1 [SA 300D]	-1.2
CCN(CC)c1ccc(C=C2N=C(C)N(CCCCO)C2=O)cc1 [N 182]	-0.1
CCN(CC)c1ccc(C=C2N=C(C=Cc3ccc(OC)cc3)N(C)C2=O)c(B(F)F)c1 [M 1971a]	-0.3
CCC(=O)C1=NC(=Cc2ccc(O)cc2)C(=O)N1C [M 2372в]	-0.2
CC(=O)Oc1ccc(C=C2N=C(C=Cc3ccncc3)N(C)C2=O)cc1 [M 1009B]	0.5
CNC(=O)c1onc(C(=O)OC(C)C)c1-c1cccs1 [SA 330A]	-0.5
CON1C(=O)C(=Cc2ccc(O)cc2)N=C1CCC(C)C [M 552]	0
CC1=CC(C)(C)N(C)c2ccc(C=C3N=C(C)N(CCCCO)C3=O)cc21 [N 141]	0.2
NC(=C1N=C2C=CC=CN2C1=O)c1ccccc1 [ZS 167]	-0.1
CC1=NC(=Cc2ccc(O)cc2)C(=O)N1CCCNC(=O)OC(C)(C)C [X 10]	-0.2
